Measurements published in patent publication US8741836B2, “Polypeptides” (Novo Nordisk A/S, priority 2011, dated 2014).
Starred links: 1 amine or outer side, 2 acyl side, 3 side chain; linkers in the order of their positions; H or OH if unused. Positions of bridges follow the written chain, without caps; N, C: chain ends. Residues, ends and D or L forms follow the SMILES beside them. *: point of attachment. C20 diacid = O=C(O)CCCCCCCCCCCCCCCCCCC(=O)*; γGlu = O=C(O)[C@H](CCC(=O)[*:2])N[*:1]

Key:
[1] = Assay (III) ThT fibrillation assay for physical stability; type: physicochemical; conditions: for ThT pH 4.0 lag time: pH 4.0, ThT fibrillation assay
Outline: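 Freshly prepared, pH-adjusted formulations with 1 μM ThT incubated at 37 °C under 960 rpm orbital shaking (1 mm), fluorescence (ex 444, em 485 nm) read every 20 min. […] Peptide content before and after measured by reverse-phase HPLC against pramlintide standard.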

ad libitum fed rat = assay: Assay (I) efficacy testing on appetite (food intake) using an ad libitum fed rat model; type: in vivo, Sprague Dawley (SD) rats
Outline: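 Ad libitum fed Sprague Dawley rats, 200-250 g, singly housed on reversed light cycle, got one ip, po or sc dose of 0.01-3 mg/kg just before lights off; groups of 5-8 with vehicle control. Food intake recorded hourly for 7 h, then at 24 h and sometimes 48 h; Grubbs outliers excluded.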

Compound	ThT pH 4.0 lag time [1]	Food intake reduction 0-24 h 3 nmol/kg (%) (ad libitum fed rat; 0-24 h)	Food intake reduction 24-48 h 3 nmol/kg (%) (ad libitum fed rat; 24-48 h)	Food intake reduction 0-24 h 30 nmol/kg (%) (ad libitum fed rat; 30 nmol/kg, 0-24 h)	Food intake reduction 24-48 h 30 nmol/kg (%) (ad libitum fed rat; 30 nmol/kg, 24-48 h)	ThT pH 4.0 lag time (physical stability in fibrillogenesis assay) ([1]; pH 4.0)
CC[C@H](C)[C@H](NC(=O)[C@@H]1CCCN1C(=O)CNC(=O)[C@H](Cc1ccccc1)NC(=O)[C@H](CO)NC(=O)[C@H](CO)NC(=O)[C@H](CO)NC(=O)[C@H](CO)NC(=O)[C@H](CCCNC(=N)N)NC(=O)[C@H](Cc1c[nH]cn1)NC(=O)[C@H](CC(C)C)NC(=O)[C@H](Cc1ccccc1)NC(=O)[C@H](CCC(=O)O)NC(=O)[C@H](C)NC(=O)[C@H](CC(C)C)NC(=O)[C@H](CCCNC(=N)N)NC(=O)[C@H](CCC(N)=O)NC(=O)[C@@H](NC(=O)[C@H](C)NC(=O)[C@@H]1CSSC[C@H](NC(=O)[C@H](Cc2c[nH]cn2)NC(=O)CC[C@H](NC(=O)CCCCCCCCCCCCCCCCCCC(=O)O)C(=O)O)C(=O)N[C@@H](CC(N)=O)C(=O)N[C@@H]([C@@H](C)O)C(=O)N[C@@H](C)C(=O)N[C@@H]([C@@H](C)O)C(=O)N1)[C@@H](C)O)C(=O)N[C@@H](CC(C)C)C(=O)N1CCC[C@H]1C(=O)N1CCC[C@H]1C(=O)N[C@H](C(=O)N[C@@H](CC(=O)O)C(=O)N[C@H](C(=O)NCC(=O)N[C@@H](CO)C(=O)N[C@@H](CC(=O)O)C(=O)N[C@H](C(=O)N[C@@H](Cc1ccc(O)cc1)C(N)=O)[C@@H](C)O)C(C)C)[C@@H](C)O [Example 9, N-alpha-[(S)-4-Carboxy-4-(19-carboxynonadecanoylamino)butyryl]-[His1,Glu14,His17,Arg18,Ser21,Ser22,Asp31,Asp35]-pramlintide] ({C20 diacid-γGlu}-HCNTATCATQRLAEFLHRSSSSFGPILPPTDVGSDTY-NH2; disulfide 2-7)	>45 h	39%	32%	–	–	–
CC[C@H](C)[C@H](NC(=O)[C@@H]1CCCN1C(=O)CNC(=O)[C@H](Cc1ccccc1)NC(=O)[C@H](CC(N)=O)NC(=O)[C@H](CC(N)=O)NC(=O)[C@H](CO)NC(=O)[C@H](CO)NC(=O)[C@H](Cc1c[nH]cn1)NC(=O)[C@H](CCCNC(=N)N)NC(=O)[C@H](CC(C)C)NC(=O)[C@H](Cc1ccccc1)NC(=O)[C@H](CCC(=O)O)NC(=O)[C@H](C)NC(=O)[C@H](CC(C)C)NC(=O)[C@H](CCCNC(=N)N)NC(=O)[C@H](CCC(N)=O)NC(=O)[C@@H](NC(=O)[C@H](C)NC(=O)[C@@H]1CSSC[C@H](NC(=O)[C@H](CCCCN)NC(=O)CC[C@H](NC(=O)CCCCCCCCCCCCCCCCCCC(=O)O)C(=O)O)C(=O)N[C@@H](CC(N)=O)C(=O)N[C@@H]([C@@H](C)O)C(=O)N[C@@H](C)C(=O)N[C@@H]([C@@H](C)O)C(=O)N1)[C@@H](C)O)C(=O)N[C@@H](CC(C)C)C(=O)N1CCC[C@H]1C(=O)N1CCC[C@H]1C(=O)N[C@H](C(=O)N[C@@H](CC(N)=O)C(=O)N[C@H](C(=O)NCC(=O)N[C@@H](CO)C(=O)N[C@@H](CC(N)=O)C(=O)N[C@H](C(=O)N[C@@H](Cc1ccc(O)cc1)C(N)=O)[C@@H](C)O)C(C)C)[C@@H](C)O [Example 50, N-alpha-[(S)-4-Carboxy-4-(19-carboxynonadecanoylamino)butyryl]-[Glu14,Arg17]-pramlintide] ({C20 diacid-γGlu}-KCNTATCATQRLAEFLRHSSNNFGPILPPTNVGSNTY-NH2; disulfide 2-7 (inferred); C-terminus assumed)	>45 h	30%	8%	–	–	–
CC[C@H](C)[C@H](NC(=O)[C@@H]1CCCN1C(=O)CNC(=O)[C@H](Cc1ccccc1)NC(=O)[C@H](CC(N)=O)NC(=O)[C@H](CC(N)=O)NC(=O)[C@H](CO)NC(=O)[C@H](CO)NC(=O)[C@H](Cc1c[nH]cn1)NC(=O)[C@H](Cc1c[nH]cn1)NC(=O)[C@H](CC(C)C)NC(=O)[C@H](Cc1ccccc1)NC(=O)[C@H](CCC(=O)O)NC(=O)[C@H](C)NC(=O)[C@H](CC(C)C)NC(=O)[C@H](CCCNC(=N)N)NC(=O)[C@H](CCC(N)=O)NC(=O)[C@@H](NC(=O)[C@H](C)NC(=O)[C@@H]1CSSC[C@H](NC(=O)[C@H](CCCCN)NC(=O)CC[C@H](NC(=O)CCCCCCCCCCCCCCCCCCC(=O)O)C(=O)O)C(=O)N[C@@H](CC(N)=O)C(=O)N[C@@H]([C@@H](C)O)C(=O)N[C@@H](C)C(=O)N[C@@H]([C@@H](C)O)C(=O)N1)[C@@H](C)O)C(=O)N[C@@H](CC(C)C)C(=O)N1CCC[C@H]1C(=O)N1CCC[C@H]1C(=O)N[C@H](C(=O)N[C@@H](CC(N)=O)C(=O)N[C@H](C(=O)NCC(=O)N[C@@H](CO)C(=O)N[C@@H](Cc1c[nH]cn1)C(=O)N[C@H](C(=O)N[C@@H](Cc1ccc(O)cc1)C(N)=O)[C@@H](C)O)C(C)C)[C@@H](C)O [Example 55, N-alpha-[(S)-4-Carboxy-4-(19-carboxynonadecanoylamino)butyryl]-[Glu14,His17,His35]-pramlintide] ({C20 diacid-γGlu}-KCNTATCATQRLAEFLHHSSNNFGPILPPTNVGSHTY-NH2; disulfide 2-7 (inferred))	37 h	58%	40%	88%	90%	–
CC[C@H](C)[C@H](NC(=O)[C@@H]1CCCN1C(=O)CNC(=O)[C@H](Cc1ccccc1)NC(=O)[C@H](CC(N)=O)NC(=O)[C@H](CC(N)=O)NC(=O)[C@H](CO)NC(=O)[C@H](CO)NC(=O)[C@H](Cc1c[nH]cn1)NC(=O)[C@H](Cc1c[nH]cn1)NC(=O)[C@H](CC(C)C)NC(=O)[C@H](Cc1ccccc1)NC(=O)[C@H](CCC(=O)O)NC(=O)[C@H](C)NC(=O)[C@H](CC(C)C)NC(=O)[C@H](CCCNC(=N)N)NC(=O)[C@H](CCC(N)=O)NC(=O)[C@@H](NC(=O)[C@H](C)NC(=O)[C@@H]1CSSC[C@H](NC(=O)[C@H](CCCNC(=N)N)NC(=O)CNC(=O)CC[C@H](NC(=O)CCCCCCCCCCCCCCCCCCC(=O)O)C(=O)O)C(=O)N[C@@H](CC(N)=O)C(=O)N[C@@H]([C@@H](C)O)C(=O)N[C@@H](C)C(=O)N[C@@H]([C@@H](C)O)C(=O)N1)[C@@H](C)O)C(=O)N[C@@H](CC(C)C)C(=O)N1CCC[C@H]1C(=O)N1CCC[C@H]1C(=O)N[C@H](C(=O)N[C@@H](CC(N)=O)C(=O)N[C@H](C(=O)NCC(=O)N[C@@H](CO)C(=O)N[C@@H](CC(N)=O)C(=O)N[C@H](C(=O)N1CCC[C@H]1C(N)=O)[C@@H](C)O)C(C)C)[C@@H](C)O [Example 101, N-alpha-[(S)-4-Carboxy-4-(19-carboxynonadecanoylamino)butyryl]-Gly-[Arg1,Glu14,His17,Pro37]-pramlintide] ({C20 diacid-γGlu}-GRCNTATCATQRLAEFLHHSSNNFGPILPPTNVGSNTP-NH2; disulfide 3-8)	>45 h	70%	90%	–	–	>45 h
CC[C@H](C)[C@H](NC(=O)[C@@H]1CCCN1C(=O)CNC(=O)[C@H](Cc1ccccc1)NC(=O)[C@H](CC(N)=O)NC(=O)[C@H](CC(N)=O)NC(=O)[C@H](CO)NC(=O)[C@H](CO)NC(=O)[C@H](CCCNC(=N)N)NC(=O)[C@H](Cc1c[nH]cn1)NC(=O)[C@H](CC(C)C)NC(=O)[C@H](Cc1ccccc1)NC(=O)[C@H](CCC(=O)O)NC(=O)[C@H](C)NC(=O)[C@H](CC(C)C)NC(=O)[C@H](CCCNC(=N)N)NC(=O)[C@H](CCC(N)=O)NC(=O)[C@@H](NC(=O)[C@H](C)NC(=O)[C@@H]1CSSC[C@H](NC(=O)[C@H](CCC(=O)O)NC(=O)CC[C@H](NC(=O)CCCCCCCCCCCCCCCCCCC(=O)O)C(=O)O)C(=O)N[C@@H](CC(N)=O)C(=O)N[C@@H]([C@@H](C)O)C(=O)N[C@@H](C)C(=O)N[C@@H]([C@@H](C)O)C(=O)N1)[C@@H](C)O)C(=O)N[C@@H](CC(C)C)C(=O)N1CCC[C@H]1C(=O)N1CCC[C@H]1C(=O)N[C@H](C(=O)N[C@@H](CC(N)=O)C(=O)N[C@H](C(=O)NCC(=O)N[C@@H](CO)C(=O)N[C@@H](CC(N)=O)C(=O)N[C@H](C(=O)N1CCC[C@H]1C(N)=O)[C@@H](C)O)C(C)C)[C@@H](C)O [Example 10, N-alpha-[(S)-4-Carboxy-4-(19-carboxynonadecanoylamino)butyryl]-[Glu1,Glu14,His17,Arg18,Pro37]-pramlintide] ({C20 diacid-γGlu}-ECNTATCATQRLAEFLHRSSNNFGPILPPTNVGSNTP-NH2; disulfide 2-7 (inferred))	–	50%	40%	–	–	–
CC[C@H](C)[C@H](NC(=O)[C@@H]1CCCN1C(=O)CNC(=O)[C@H](Cc1ccccc1)NC(=O)[C@H](CC(N)=O)NC(=O)[C@H](CC(N)=O)NC(=O)[C@H](CO)NC(=O)[C@H](CO)NC(=O)[C@H](Cc1c[nH]cn1)NC(=O)[C@H](Cc1c[nH]cn1)NC(=O)[C@H](CC(C)C)NC(=O)[C@H](Cc1ccccc1)NC(=O)[C@H](CCC(=O)O)NC(=O)[C@H](C)NC(=O)[C@H](CC(C)C)NC(=O)[C@H](CCCNC(=N)N)NC(=O)[C@H](CCC(N)=O)NC(=O)[C@@H](NC(=O)[C@H](C)NC(=O)[C@@H]1CSSC[C@H](NC(=O)[C@H](Cc2c[nH]cn2)NC(=O)[C@H](Cc2c[nH]cn2)NC(=O)CC[C@H](NC(=O)CCCCCCCCCCCCCCCCCCC(=O)O)C(=O)O)C(=O)N[C@@H](CC(N)=O)C(=O)N[C@@H]([C@@H](C)O)C(=O)N[C@@H](C)C(=O)N[C@@H]([C@@H](C)O)C(=O)N1)[C@@H](C)O)C(=O)N[C@@H](CC(C)C)C(=O)N1CCC[C@H]1C(=O)N1CCC[C@H]1C(=O)N[C@H](C(=O)N[C@@H](CC(N)=O)C(=O)N[C@H](C(=O)NCC(=O)N[C@@H](CO)C(=O)N[C@@H](CC(N)=O)C(=O)N[C@H](C(=O)N[C@@H](Cc1ccc(O)cc1)C(N)=O)[C@@H](C)O)C(C)C)[C@@H](C)O [Example 17, N-alpha-[(S)-4-Carboxy-4-(19-carboxynonadecanoylamino)butyryl]-His-[His1,Glu14,His17]-pramlintide] ({C20 diacid-γGlu}-HHCNTATCATQRLAEFLHHSSNNFGPILPPTNVGSNTY-NH2; disulfide 3-8)	–	40%	22%	–	–	–
